Measured values taken from US12297218B2, “Complex comprising a PSMA-targeting compound linked to a lead or thorium radionuclide” (Sciencons AS, priority 2017, dated 2025).

Tests used:
[1] = system: C4-2 PSMA-positive xenografts; assay: Biodistribution of radiolabelled ligands after intravenous injection in nude mice with C4-2 xenografts; conditions: for Tumor-to-kidney ratio / Kidney uptake / Tumor uptake: average; for Tumor-to-kidney ratio: 1-hour point after administration; for Kidney uptake / Tumor uptake: 4 hours after injection
Procedure: Each group usually consisted of three mice. […] Approximately 16 kBq of ^224Ra/^212Pb was injected in each animal, i.e., approximately 0.2 nmol of ligand per mouse. Animals were given anaesthesia and sacrificed by cervical dislocation followed by dissection and harvesting of tissue-, blood- and urine samples. The samples were weighed and counted on a gamma counter.
Three mice in each group. […] The molar concentration was the same for both products, i.e., 12.5 nmol per MBq. Approximately 16 kBq of ^224Ra/^212Pb was injected in each animal, i.e., approximately 0.2 nmol of ligand per mouse. Animals were given anaesthesia and sacrificed by cervical dislocation followed by dissection and harvesting of tissue-, blood- and urine samples. The samples were weighed and counted on a gamma counter.
Methods: Tumor and kidney uptake of ^212Pb-labeled p-SCN-Bn-TCMC-PSMA ligand 1 and ^177Lu-labeled PSMA-617 was compared at 1 hours and 4 hours after administration of the products by intravenous injection into nude mice with C4-2 xenografts as described in Example 9.

[2] = system: C4-2 PSMA positive human prostate cells; assay: Comparative therapy experiment in nude mice with C4-2 xenografts; assay type: in vivo; conditions: for Median survival: 52 MBq ^177Lu-PSMA-617 or 320 kBq ^212Pb-p-SCN-Bn-TCMC-PSMA ligand 1
Procedure: Male nude mice were inoculated in the flanks with C4-2 PSMA positive human prostate cells and 2 weeks later when tumors were 5-7 mm in diameters. Groups of 8 animals each received saline, 52 MBq of ^177Lu-PSMA-617 or 320 kBq of ^212Pb-p-SCN-Bn-TCMC-PSMA ligand 1. Animals were sacrificed when tumor size reached 20 mm due to animal welfare requirements. […] For ^212Pb the effective half-life was assumed to be 10.6 h, 10% of injected dose per gram decays in tumor and 100% of radiation in a tumor is absorbed in the tumor, 100% retention of ^212Pb and daughters in the tumors and 8 MeV radiation energy per decay. The tumor dosimetry for the injected activities gave on average 35.9 Gy to tumors for ^177Lu-PSMA-617 and 2.06 Gy to tumors for ^212Pb-p-SCN-Bn-TCMC-PSMA ligand 1 groups respectively.

PC3 PIP model = conditions: typical, mouse xenografts, other researchers; cited from earlier work
PSMA-positive xenografts = assay: Biodistribution of single targeting solution (purified ^212Pb-p-SCN-Bn-TCMC-PSMA ligand 1) in mice with PSMA-positive xenografts; assay type: in vivo
Procedure: Each group usually consisted of three mice. The ^212Pb labelling was above 92% for the products.
Using a ^212Pb/^224Ra solution for reaction with p-SCN-Bn-TCMC-PSMA ligand 1 as described, purified ^212Pb-p-SCN-Bn-TCMC-PSMA ligand 1 was purified using a Sephadex G-10 gel filtration column and about 30 kBq and 300 ng of the purified radioligand product was injected per animal. […] The tumor-to-tissue ratios (Table 4) indicates suitability for radioligand targeting with ^212Pb.

C4-2 cells = assay: Prostate cancer cell binding of ligands labeled with ^212Pb; parameters: species or system human
Procedure: the cell binding fractions measured by adding about 1 ng of radioligand to 0.2 ml of C4-2 cells (5×10^7 cells per ml) in a 5 ml test tube and incubate for 1 h before measuring applied activity, wash cells 3 times with 0.5 ml 0.5% bovine serum albumin in DPBS and thereafter recount the washed cell pellet. […] Nonspecific binding was measured by blocking the cells with excess 10 μg/ml of unlabelled ligand before adding radioligand.

O=C([O-])CN1CCN(CC(=O)[O-])CCN(CC(=O)NCC2CCC(C(=O)N[C@@H](Cc3ccc4ccccc4c3)C(=O)NCCCC[C@H](NC(=O)N[C@@H](CCC(=O)O)C(=O)O)C(=O)O)CC2)CCN(CC(=O)[O-])CC1.[177Lu+3] (stereo partly shown) [^177Lu-PSMA-617, reference compound]
Tumor-to-kidney ratio [1]: 0.17 | Kidney uptake [1]: 17.4 % ID/g | Tumor uptake [1]: 13.6 % ID/g | PSMA-ligand uptake in the xenograft model used ([1]; typical, mouse xenografts): 10-15 % ID/g | Median survival [2]: 20 days | PSMA-ligand uptake in PC3 PIP model (PC3 PIP model): 30-40 % ID/g

NC(=O)CN1CCN(CC(N)=O)CCN(CC(N)=O)C(Cc2ccc(NC(=S)NCC3CCC(C(=O)NC(Cc4ccc5ccccc5c4)C(=O)NCCCCC(NC(=O)NC(CCC(=O)O)C(=O)O)C(=O)O)CC3)cc2)CN(CC(N)=O)CC1.[212Pb+2] (stereo not shown) [^212Pb-p-SCN-Bn-TCMC-PSMA ligand 1]
^212Pb-p-SCN-Bn-TCMC-PSMA ligand 1 to PSMA-617 ratio, blood ([1]; 4 h after injection): 1.21 | ^212Pb-p-SCN-Bn-TCMC-PSMA ligand 1 to PSMA-617 ratio, kidneys ([1]; 4 h after injection): 0.20 | ^212Pb-p-SCN-Bn-TCMC-PSMA ligand 1 to PSMA-617 ratio, liver ([1]; 4 h after injection): 2.67 | ^212Pb-p-SCN-Bn-TCMC-PSMA ligand 1 to PSMA-617 ratio, spleen ([1]; 4 h after injection): 0.71 | ^212Pb-p-SCN-Bn-TCMC-PSMA ligand 1 to PSMA-617 ratio, tumor ([1]; 4 h after injection, ^224Ra/^212Pb solution): 1.35 | Tumor-to-kidney ratio [1]: 0.40 | Kidney uptake [1]: 8.1 % ID/g | Tumor uptake [1]: 13.9 % ID/g | Tumor to tissue ratio, Tumor/Femur (PSMA-positive xenografts; 1 h): 30.4 | Tumor to tissue ratio, Tumor/blood (PSMA-positive xenografts; 1 h): 14.9 | Tumor to tissue ratio, Tumor/kidneys (PSMA-positive xenografts; 1 h): 0.41 | Tumor to tissue ratio, Tumor/muscle (PSMA-positive xenografts; 1 h): 42.6 | Tumor to tissue ratio, Tumor/Femur (PSMA-positive xenografts; 2 h): 39.7 | Tumor to tissue ratio, Tumor/blood (PSMA-positive xenografts; 2 h): 29.4 | Tumor to tissue ratio, Tumor/kidneys (PSMA-positive xenografts; 2 h): 0.62 | Tumor to tissue ratio, Tumor/muscle (PSMA-positive xenografts; 2 h): 72.1 | Tumor to tissue ratio, Tumor/Femur (PSMA-positive xenografts; 4 h): 24.8 | Tumor to tissue ratio, Tumor/blood (PSMA-positive xenografts; 4 h): 30.7 | Tumor to tissue ratio, Tumor/kidneys (PSMA-positive xenografts; 4 h): 1.54 | Tumor to tissue ratio, Tumor/muscle (PSMA-positive xenografts; 4 h): 61.5 | Tumor to tissue ratio, Tumor/Femur (PSMA-positive xenografts; 8 h): 19.8 | Tumor to tissue ratio, Tumor/blood (PSMA-positive xenografts; 8 h): 112.7 | Tumor to tissue ratio, Tumor/kidneys (PSMA-positive xenografts; 8 h): 3.60 | Tumor to tissue ratio, Tumor/muscle (PSMA-positive xenografts; 8 h): 366.2 | Biodistribution, Bladder (PSMA-positive xenografts; Bladder, 8 h): 0.26 % ID/g | Biodistribution, Blood (PSMA-positive xenografts; 2 h): 0.54 % ID/g | Biodistribution, Blood (PSMA-positive xenografts; 4 h): 0.46 % ID/g | Biodistribution, Blood (PSMA-positive xenografts; 8 h): 0.13 % ID/g | Biodistribution, Brain (PSMA-positive xenografts; 1 h): 0.61 % ID/g | Biodistribution, Brain (PSMA-positive xenografts; 2 h): 0.04 % ID/g | Biodistribution, Brain (PSMA-positive xenografts; 4 h): 0.07 % ID/g | Biodistribution, Brain (PSMA-positive xenografts; 8 h): 0.02 % ID/g | Biodistribution, Femur (PSMA-positive xenografts; 1 h): 0.87 % ID/g | Biodistribution, Femur (PSMA-positive xenografts; 2 h): 0.40 % ID/g | Biodistribution, Femur (PSMA-positive xenografts; 4 h): 0.57 % ID/g | Biodistribution, Femur (PSMA-positive xenografts; 8 h): 0.74 % ID/g | Biodistribution, Heart (PSMA-positive xenografts; 1 h): 0.78 % ID/g | Biodistribution, Heart (PSMA-positive xenografts; 2 h): 0.20 % ID/g | Biodistribution, Heart (PSMA-positive xenografts; 4 h): 0.52 % ID/g | Biodistribution, Heart (PSMA-positive xenografts; 8 h): 0.09 % ID/g | Biodistribution, Large intestine (PSMA-positive xenografts; 1 h): 0.25 % ID/g | Biodistribution, Large intestine (PSMA-positive xenografts; 2 h): 0.39 % ID/g | Biodistribution, Large intestine (PSMA-positive xenografts; 4 h): 0.18 % ID/g | Biodistribution, Large intestine (PSMA-positive xenografts; 8 h): 0.17 % ID/g | Biodistribution, Lungs (PSMA-positive xenografts; 2 h): 0.40 % ID/g | Biodistribution, Lungs (PSMA-positive xenografts; 4 h): 0.75 % ID/g | Biodistribution, Lungs (PSMA-positive xenografts; 8 h): 0.17 % ID/g | Biodistribution, Muscle (PSMA-positive xenografts; 1 h): 0.62 % ID/g | Biodistribution, Muscle (PSMA-positive xenografts; 2 h): 0.22 % ID/g | Biodistribution, Muscle (PSMA-positive xenografts; 4 h): 0.23 % ID/g | Biodistribution, Muscle (PSMA-positive xenografts; 8 h): 0.04 % ID/g | Biodistribution, Prostate (PSMA-positive xenografts; Prostate, 2 h): 3.80 % ID/g | Biodistribution, Salivary gland (PSMA-positive xenografts; 1 h): 0.72 % ID/g | Biodistribution, Salivary gland (PSMA-positive xenografts; 2 h): 0.32 % ID/g | Biodistribution, Salivary gland (PSMA-positive xenografts; 4 h): 0.34 % ID/g | Biodistribution, Salivary gland (PSMA-positive xenografts; 8 h): 0.15 % ID/g | Biodistribution, Skin (PSMA-positive xenografts; 1 h): 1.70 % ID/g | Biodistribution, Skin (PSMA-positive xenografts; 2 h): 0.47 % ID/g | Biodistribution, Skin (PSMA-positive xenografts; 4 h): 0.42 % ID/g | Biodistribution, Skin (PSMA-positive xenografts; 8 h): 0.23 % ID/g | Biodistribution, Skull (PSMA-positive xenografts; 1 h): 0.77 % ID/g | Biodistribution, Skull (PSMA-positive xenografts; 2 h): 0.38 % ID/g | Biodistribution, Skull (PSMA-positive xenografts; 4 h): 0.37 % ID/g | Biodistribution, Skull (PSMA-positive xenografts; 8 h): 0.63 % ID/g | Biodistribution, Small intestine (PSMA-positive xenografts; 1 h): 0.34 % ID/g | Biodistribution, Small intestine (PSMA-positive xenografts; 2 h): 0.23 % ID/g | Biodistribution, Small intestine (PSMA-positive xenografts; 4 h): 0.30 % ID/g | Biodistribution, Small intestine (PSMA-positive xenografts; 8 h): 0.08 % ID/g | Biodistribution, Spleen (PSMA-positive xenografts; 2 h): 0.44 % ID/g | Biodistribution, Spleen (PSMA-positive xenografts; 4 h): 0.54 % ID/g | Biodistribution, Spleen (PSMA-positive xenografts; 8 h): 0.36 % ID/g | Biodistribution, Stomach (PSMA-positive xenografts; 1 h): 0.16 % ID/g | Biodistribution, Stomach (PSMA-positive xenografts; 2 h): 0.22 % ID/g | Biodistribution, Stomach (PSMA-positive xenografts; 4 h): 0.10 % ID/g | Biodistribution, Stomach (PSMA-positive xenografts; 8 h): 0.09 % ID/g | Biodistribution, Testes (PSMA-positive xenografts; 2 h): 0.56 % ID/g | Biodistribution, Testes (PSMA-positive xenografts; 4 h): 0.38 % ID/g | Biodistribution, Testes (PSMA-positive xenografts; 8 h): 0.12 % ID/g | Median survival [2]: > 30 days | Radiobiological effectiveness (RBE) vs ^177Lu-PSMA-617 ([2]; C4-2 xenografts): at least 17 | Survival at day 30 after treatment ([2]; groups of 8): 75%

NC(=O)CN1CCN(CC(N)=O)CCN(CC(N)=O)C(Cc2ccc(NC(=S)NC[C@H]3CC[C@H](C(=O)N[C@@H](Cc4ccc5ccccc5c4)C(=O)NCCCC[C@H](NC(=O)N[C@@H](CCC(=O)O)C(=O)O)C(=O)O)CC3)cc2)CN(CC(N)=O)CC1 (stereo partly drawn) [p-SCN-Bn-TCMC-PSMA ligand 1, (((1S)-1-carboxy-5-((2S)-3-(naphthalen-2-yl)-2-((1r,4S)-4-((3-(4-((1,4,7,10-tetrakis(2-amino-2-oxoethyl)-1,4,7,10-tetraazacyclododecan-2-yl)methyl)phenyl)thioureido)methyl)cyclohexane-1-carboxamido)propanamido)pentyl)carbamoyl)-L-glutamic acid; trifloroacetic acid (1:4)]
Difference in cell-binding between radiolabelled p-SCN-Bn-TCMC-PSMA ligand 1 and PSMA-617 (C4-2 cells): No significant difference
